This experiment relates to CEM cells HIV-1 protection, formazan growth assay. In words: NCI AIDS Antiviral Assay. The following applies: for IC50: measured here: growth of uninfected CEM cells. The method in brief: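 Five concentrations of each compound were applied to infected and uninfected human CEM cells. Protection from HIV-1 was judged from growth measured with a soluble formazan assay.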

Where “and” joins values, the source holds several entries; their conditions need not be identical. Identical values can stand only once. Calls of active or inactive are those of the source.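 Rule for the calls: active = compounds giving half or more protection of infected cells from virus-caused growth loss, again on retest; inactive = the rest.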

On to `CC1CCC2(CO)C(CO)=CCCC2[C@@]1(C)CC/C(=C/CO)CO` (some centres undefined), for which the result was inactive.

On to `CCOC(=O)NC(OCc1ccccc1)(C(=O)OC)C(F)(F)F` (centres undefined), for which the EC50 (usually the concentration that produces a half-maximal response) was > 200 µM and the IC50 – broadly, the midpoint of a concentration-inhibition curve – is > 200 µM. Consider `CN(C)N=Nc1ccc(/C=C2/C=Cc3ccccc32)cc1`, for which the EC50 is > 49 µM and the IC50 is > 49 µM.

On to `Cc1ccc(NC(=O)/C(CC(=O)c2sc(Nc3ccccc3Cl)nc2C)=N\Nc2ccc([N+](=O)[O-])cc2[N+](=O)[O-])c(C)c1`, for which the EC50 is > 200 µM and the IC50 was 97.7 µM.

As for `C/C(=N/OC(=O)N(C)C)c1ccc(Cl)c(Cl)c1`, the EC50 was > 200 µM and the IC50 was found to be 102 µM.

Take `CCCCCC(=O)Cc1cc(OC)cc2c1C(=O)Oc1cc(O)c(C(=O)O)c(CC(=O)CCCCC)c1O2`: the EC50 was > 339 µM and the IC50 came out at 112 µM. The like results for `C=C(C)OCOCCOC` were, in that order, > 200 µM and > 200 µM. Turning to `COc1cccc(C2CO2)c1` (centres undefined), the EC50 is > 200 µM and the IC50 was determined as 151 µM. Regarding `CC1(C)C[C@@H]2C1CCC1(C)CC2(O)CC[C@H]1O` (some centres undefined), the EC50 was > 200 µM and the IC50 was > 200 µM.

As to `C=C1C(=O)C[C@@]23CCC[C@@]12CC(OCOC)C3` (some centres undefined), the outcome was inactive. As to `COC(OC)c1cccc2c1C(=O)CCC1(O)c3ccccc3C1C2` (centres undefined), the EC50 was > 155 µM and the IC50 amounted to 138 µM. In the case of `COC(=O)Cc1ccc2c(c1)Sc1ccc(CC(=O)OC)cc1N2C`, the EC50 was > 200 µM and the IC50 worked out at 4.47 µM. As for `CNc1cc[nH]c(=O)c1NC(C)=O`, the EC50 was > 1380 µM and the IC50 is > 1380 µM. On to `O=C1NC(N/N=C\C(O)C(O)C(O)CO)=N/C1=C/c1ccccc1` (centres undefined), for which the EC50 was > 200 µM and 38 µM; the IC50 was 89.1 µM and 105 µM. For `CCO[C@H]1O[C@@H]2OC3(C)CCC4[C@H](C)CCC([C@H]1C)[C@]42OO3` (some centres undefined), the EC50 was > 200 µM and the IC50 stood at 35.5 µM. The like results for `CN1c2ccccc2C2=C(c3ccccc3)CC[C@@H](C(=O)N3C4CC5CC[C@@]4(CS3(=O)=O)C5(C)C)[C@@H]21` (some centres undefined) were, in that order, > 200 µM and 129 µM. On the same counts, the results for `CN1C(CC(O)c2ccccc2)CCCC1CC(O)(c1ccccc1)c1ccccc1` (centres undefined) are > 107 µM and 22.9 µM.

For the compound `C1CN2CCOB(O1)OCC2`, the EC50 is > 200 µM and the IC50 is > 200 µM.

With `CN1CCN(CCCN2c3ccccc3Sc3ccc(Cl)cc32)CC1`, the EC50 was > 200 µM and the IC50 was determined as 3.72 µM. Regarding `NC1CNC(=O)c2cscc21` (centres undefined), the EC50 was > 200 µM and the IC50 was > 200 µM. Turning to `COC(=O)c1c[nH]c(=O)[nH]c1=O`, the EC50 is > 200 µM and the IC50 is > 200 µM. For `CC(=O)C(=[N+]=[N-])C(=O)N(C)CCC#N`, the EC50 is > 200 µM and the IC50 was > 200 µM. Take `C=CC(C)(C)c1cccc2[nH]c3c(c12)CC1CCC2(O)C4=CC(=O)C5OC4(CCC2(C)[C@@]31C)OC5(C)C` (some centres undefined): the result was inactive. As to `Cc1occc1C(=S)Nc1ccc(Cl)c(/C=N/OC2CCCC2)c1`, the EC50 was 0.174 µM and the IC50 stood at 14.5 µM. On to `Cc1occc1C(=S)Nc1ccc(Cl)c(OCC(=O)OC(C)(C)C)c1`, for which the EC50 was 12.9 µM and the IC50 was determined as 28.2 µM. Regarding `CCCCCC=C(c1ccc(OC)c(S(=O)(=O)N(C)C)c1)c1ccc(OC)c(S(=O)(=O)N(C)C)c1`, the EC50 was > 35.5 µM and the IC50 was > 35.5 µM. For the compound `Cc1c(C(=O)O)n2c(=S)[nH]nc2c2ccccc12`, the EC50 is > 200 µM and the IC50 was > 200 µM. For the compound `O=C(O)CNS(=O)(=O)c1ccc(NC(=O)c2ccc(Cl)cc2)cc1`, the outcome was inactive. As for `O=NN/C(=C1\Nc2ccc([N+](=O)[O-])cc2NC1=O)C(O)c1ccc([N+](=O)[O-])cc1` (centres undefined), the EC50 is > 234 µM and the IC50 was 191 µM. Turning to `COc1nc2ccc(COc3ccc(C(=O)O)cc3)cc2nc1OC`, the EC50 is > 200 µM and the IC50 turned out to be 132 µM. On to `CCc1cc(-c2cccc3ccccc23)c(C#N)c(=S)[nH]1`, for which the EC50 is > 200 µM and the IC50 was 32.4 µM. As to `COc1ccc2c(c1)CC[C@@H]1[C@@H]2CC[C@]2(C)C(=O)/C(=N/O)C[C@@H]12`, the EC50 was > 200 µM and the IC50 came to 8.51 µM. Consider `C1=Cc2nc1c(-c1ccccc1)c1ccc([n-]1)c(-c1ccccc1)c1nc(c(-c3ccncc3)c3ccc([n-]3)c2-c2ccccc2)C=C1.C1=Cc2nc1c(-c1ccccc1)c1ccc([n-]1)c(-c1ccccc1)c1nc(c(-c3ccncc3)c3ccc([n-]3)c2-c2ccccc2)C=C1.C1=Cc2nc1c(-c1ccccc1)c1ccc([n-]1)c(-c1ccccc1)c1nc(c(-c3ccncc3)c3ccc([n-]3)c2-c2ccccc2)C=C1.C1=Cc2nc1c(-c1ccccc1)c1ccc([n-]1)c(-c1ccccc1)c1nc(c(-c3ccncc3)c3ccc([n-]3)c2-c2ccccc2)C=C1.O=S(=O)([O-])C(F)(F)F.[Pt+2].[Zn+2].[Zn+2].[Zn+2].[Zn+2]`, for which the EC50 is > 25.1 µM and the IC50 was > 25.1 µM. Take `CCN(CC)C(=O)C1=C(C)NC(C)=C(C(=O)N(CC)CC)C1`: the EC50 was > 200 µM and the IC50 was 61.7 µM. Take `O=C(C#Cc1ccccc1)Nc1ccccc1CC(c1c[nH]c2ccccc12)c1c[nH]c2ccccc12`: the EC50 was > 26.3 µM and the IC50 amounted to 5.25 µM. On the same counts, the results for `O=c1cc(NNc2ccccc2F)[nH]c(=O)[nH]1` are > 200 µM and 1.78 µM. Regarding `CCOC(=O)C(Cl)(NC(=O)NC(Cl)(C(=O)OCC)C(F)(F)F)C(F)(F)F` (centres undefined), the EC50 is > 200 µM and the IC50 was > 200 µM. Turning to `Cn1c2c(O)c(O)ccc2c(=O)c2c(O)cc3c(c21)C=CC(C)(C)O3`, the EC50 is > 200 µM and the IC50 was > 200 µM. Consider `COc1cc2c(cc1OC)NC(C)=CC(C)=N2`, for which the EC50 is > 200 µM and the IC50 was > 200 µM. Turning to `O=C(O)c1cnccc1-c1cc(=O)[nH]n1-c1ccccc1`, the EC50 is > 200 µM and the IC50 turned out to be 30.2 µM.

On to `Cc1cc(O)c2c(oc3cc(O)c4c(c32)COC4=O)c1C(=O)O`, for which the EC50 was > 56.2 µM and the IC50 amounted to 18.6 µM. As to `CCOc1ccc(N=Nc2c(-c3ccccc3)nn(C(=O)CC(=O)Nc3cccc(C)c3)c2-c2ccccc2)cc1`, the EC50 was > 47.9 µM and the IC50 is > 47.9 µM. On to `CC(=O)OC12CC[N+]3(C)CCCCC3C1=Nc1ccccc12` (centres undefined), for which the EC50 is > 589 µM and the IC50 is 479 µM. Take `CC12CC(OC1=O)C(=O)c1ccccc12` (centres undefined): the EC50 was > 468 µM and the IC50 turned out to be 209 µM. Regarding `Cc1nc2ccccc2c(=O)n1NC(=O)c1ccccc1[N+](=O)[O-]`, the EC50 was > 200 µM and the IC50 was > 200 µM. For the compound `C[C@]12CC[C@H](CCC=C(c3cc(Cl)c(O)c(C(=O)O)c3)c3cc(Cl)c(O)c(C(=O)O)c3)C[C@@H]1CC[C@@H]1[C@@H]2CC[C@]2(C)[C@@H](CCC=C(c3cc(Cl)c(O)c(C(=O)O)c3)c3cc(Cl)c(O)c(C(=O)O)c3)CC[C@@H]12`, the EC50 is 6.61 µM and the IC50 came out at 110 µM.

Regarding `CC(C)(C)c1ccc(SS(=O)(=O)c2ccc(C(C)(C)C)cc2)cc1`, the EC50 was 20 µM and the IC50 came to 22.9 µM. Regarding `COc1cc2c(cc1OC)C(Cl)C(c1cc(OC)c(OC)c(OC)c1)=C2Cl` (centres undefined), the outcome was inactive. Consider `Cn1c2ccccc2c2nnc(-n3nc(-c4ccccc4)cc3N)nc21`, for which the EC50 is > 200 µM and the IC50 amounted to 53.7 µM. Consider `Cc1ccc(S(=O)C[C@](NC(=O)OCc2ccccc2)(Sc2ccccc2)C(F)F)cc1` (some centres undefined), for which the EC50 is > 200 µM and the IC50 is 10.7 µM. On the same counts, the results for `O=C1c2c(O)cccc2C(C2OC(CO)C(O)C(O)C2O)c2cc(CO)cc(O)c21` (centres undefined) are > 603 µM and 389 µM.

With `O=Cc1ccc2c(c1-c1c(C=O)ccc3c1OCO3)OCO2`, the EC50 is > 170 µM and the IC50 came out at 79.4 µM.

For `Cn1c(=O)n2n(c1=O)[C@@H](c1ccccc1)[C@H]2c1ccccc1`, the EC50 is > 200 µM and the IC50 was found to be 91.2 µM. Regarding `NC1=NN(c2ccccc2)C(=O)C1C(=O)C(=O)Nc1cccc(C(F)(F)F)c1` (centres undefined), the outcome was inactive. Take `COC(=O)N[C@H](C(=O)NC(OCc1ccccc1)C1COC(C)(C)O1)C(C)O[Si](C)(C)C(C)(C)C` (some centres undefined): the EC50 is > 70.8 µM and the IC50 is > 70.8 µM.

`CCc1ccccc1NC(=O)C1=C(C)NC(C)=C(C(=O)Nc2ccccc2CC)C1c1ccccc1Cl`: the EC50 was > 10 µM and the IC50 was > 10 µM. Take `COC(=O)c1ccc(Cc2cc(Cc3ccc(C(=O)OC)cc3)cc(Cc3ccc(C(=O)OC)cc3)c2)cc1`: the EC50 was > 25.1 µM and the IC50 is > 25.1 µM.

As to `C[Si](C)(C)CCCS(=O)(=O)O`, the EC50 is > 200 µM and the IC50 is > 200 µM.

Turning to `CC(=O)NC1C(OCc2ccccc2)OC(CO)C(O)C1OC(C)C(=O)NC(C)C(=O)N[C@H](CCC(=O)OCCNCCCNc1ccc([N+](=O)[O-])c2[nH]c3ccccc3c(=O)c12)C(N)=O` (some centres undefined), the EC50 was > 200 µM and the IC50 is 60.3 µM. Take `CC(C)(C)[Si](C)(C)OCC1OC(n2ccc(=O)[nH]c2=O)C(O[Si](C)(C)C(C)(C)C)[C@]12N[C@H](C(N)=O)CS2` (some centres undefined): the EC50 was > 200 µM and the IC50 stood at 5.25 µM. On the same counts, the results for `CC1=Nc2ccccc2NC(c2ccoc2)C1` (centres undefined) are > 22.9 µM and > 22.9 µM. Turning to `COc1ccc(C(CC(=O)c2ccc3c(c2)OCO3)C(=O)O)cc1OC` (centres undefined), the result was inactive. Turning to `[O-]/[N+](=C\c1ccccc1)[C@H](COCc1ccccc1)c1ccccc1`, the EC50 is > 77.6 µM and the IC50 was > 77.6 µM. Consider `CC1C2CC=CC(=O)[C@@]2(C)CCC12OCCO2` (some centres undefined), for which the outcome was inactive. As for `CNc1ccccc1S(=O)(=O)c1cc(Cl)ccc1OC`, the EC50 is 151 µM and the IC50 was > 200 µM.

In the case of `COC1=C(OC)C(O)(c2ccccc2)C1=O` (centres undefined), the result was inactive. Same read-out and setting: in the case of `Cc1ccc(SSCCCCCS(=O)O)cc1` it was “inactive”.
